Several values for one entry are separate records, joined by “and”; a condition that tells them apart may be missing. Identical values can stand only once.
Tests used:
[1] = system: Hela cells; assay: Phagocytosis of adriamycin-loaded ferroferric oxide nanoparticles by Hela cells; assay type: cell-based; details: 5 nM for 1 h, then nanoparticles 4 h
Experimental: Hela cells (cell bank, Chinese Academy of Sciences) were seeded in a 6-well plate at a density of 1.0*10^5 and cultured for 24 h. The cells were treated with 5 nM Ser-EPA for 1 h and washed to remove Ser-EPA. Adriamycin-loaded ferroferric oxide nanoparticles were added followed by incubation for 4 h. Then, the cells were washed with PBS, stained with DAPI, and observed with confocal microscope.

[2] = system: Hela cells; assay: Cell membrane fluidity (Laurdan fluorescence recovery) in Hela cells; assay type: cell-based
[3] = system: TNF-α; assay: Skin photoaging (UVB) in BALB/c nude mice, serum TNF-α (Example II-54, Table II-32); assay type: in vivo, mouse; details: UVB-irradiated BALB/c nude mice, 40 days
[4] = system: IL-1β; assay: Skin photoaging (UVB) in BALB/c nude mice, serum IL-1β (Example II-54, Table II-33); assay type: in vivo, mouse; details: mouse, in vivo
[5] = system: IL-6; assay: Skin photoaging (UVB) in BALB/c nude mice, serum IL-6 (Example II-54, Table II-34); assay type: in vivo, mouse; details: mouse, in vivo
[6] = system: IL-1β; assay: LPS inflammatory aging in C57BL/6 mice, serum IL-1β (Example II-55, Table II-35); assay type: in vivo, mouse; details: 1 mM, 200 μl/time, once a day, 30 days
[7] = system: IL-6; assay: LPS inflammatory aging in C57BL/6 mice, serum IL-6 (Example II-55, Table II-36); assay type: in vivo, mouse; details: mouse, in vivo
[8] = system: TNF-α; assay: LPS inflammatory aging in C57BL/6 mice, serum TNF-α (Example II-55, Table II-37); assay type: in vivo, mouse; details: 1 mM, 200 μl/time once a day for 30 days, LPS C57BL/6 mice
[9] = system: Escherichia coli; assay: Bacteriostasis/sterilization test (plate count); assay type: cell-based; details: 0.035 mM (Table 25)
[10] = system: Staphylococcus aureus; assay: Bacteriostasis/sterilization test (plate count); assay type: cell-based
[11] = system: Methicillin-resistant Staphylococcus aureus; assay: Bacteriostasis/sterilization test (plate count); assay type: cell-based; details: 0.035 mM (Table 25)
[12] = system: Streptococcus pneumoniae; assay: Bacteriostasis/sterilization test (plate count); assay type: cell-based; details: 0.035 mM (Table 25)
[13] = system: Klebsiella pneumoniae; assay: Bacteriostasis/sterilization test (plate count); assay type: cell-based; details: 0.035 mM (Table 25)
[14] = system: Pseudomonas aeruginosa; assay: Bacteriostasis/sterilization test (plate count); assay type: cell-based; details: 0.035 mM (Table 25)
[15] = system: H7N9 pseudovirus; assay type: cell-based, Influenza pseudovirus H7N9-Fluc
[16] = system: H5N1 pseudovirus; assay type: cell-based, Influenza pseudovirus H5N1-Fluc
[17] = system: HIV pseudovirus; assay type: cell-based, HIV pseudovirus HIV18A-41
[18] = system: SARS-CoV-2 pseudovirus; assay type: cell-based, SARS-CoV-2 pseudovirus B.1.526.2
[19] = system: Human hair follicle stem cells; assay: Human hair follicle stem cell proliferation (EdU); assay type: cell-based; details: 20 μM, 30 μM, 50 μM, 6 h
[20] = system: HPV pseudovirus (HPV6-GFP); details: read-out: median neutralization concentration

Q: Which results are given for CCC=CCC=CCC=CCC=CCC=CCCCC(=O)NC(CO)C(=O)O (centres unmarked) [Ser-EPA, Serine-EPA]?
A: phagocytosis of nanoparticles by treated cells [1]: significantly inhibited; Fluorescence recovery rate % ([2]; 2 nM, 20 s): 63.44%; Fluorescence recovery rate % ([2]; 2 nM, 40 s): 65.36%; Fluorescence recovery rate % ([2]; 2 nM, 60 s): 65.21%; Fluorescence recovery rate % ([2]; 2 nM, 80 s): 66.35%; Fluorescence recovery rate % ([2]; 5 nM, 20 s): 64.73%; Fluorescence recovery rate % ([2]; 5 nM, 40 s): 64.59%; Fluorescence recovery rate % ([2]; 5 nM, 60 s): 65.66%; Fluorescence recovery rate % ([2]; 5 nM, 80 s): 67.97%; Fluorescence recovery rate % ([2]; 10 nM, 20 s): 64.66%; Fluorescence recovery rate % ([2]; 10 nM, 40 s): 65.11%; Fluorescence recovery rate % ([2]; 10 nM, 60 s): 65.24%; Fluorescence recovery rate % ([2]; 10 nM, 80 s): 66.83%; Fluorescence recovery rate % ([2]; 50 nM, 20 s): 62.84%; Fluorescence recovery rate % ([2]; 50 nM, 40 s): 62.94%; Fluorescence recovery rate % ([2]; 50 nM, 60 s): 63.04%; Fluorescence recovery rate % ([2]; 50 nM, 80 s): 64.54%; Fluorescence recovery rate % ([2]; 50 μM, 20 s): 64.33%; Fluorescence recovery rate % ([2]; 50 μM, 40 s): 72.49%; Fluorescence recovery rate % ([2]; 50 μM, 60 s): 73.77%; Fluorescence recovery rate % ([2]; 50 μM, 80 s): 81.40%; Fluorescence recovery rate % ([2]; 100 μM, 20 s): 65.72%; Fluorescence recovery rate % ([2]; 100 μM, 40 s): 72.99%; Fluorescence recovery rate % ([2]; 100 μM, 60 s): 74.34%; Fluorescence recovery rate % ([2]; 100 μM, 80 s): 80.39%; TNF-α ([3]; 30 μM smeared): 54 pg/mL; TNF-α ([3]; 50 μM smeared): 49 pg/mL; TNF-α ([3]; 100 μM smeared): 44 pg/mL; IL-1β [4]: 57 pg/mL and 61 pg/mL and 54 pg/mL; IL-6 [5]: 41 pg/mL and 38 pg/mL and 39 pg/mL; IL-1β [6]: 48 pg/mL; IL-6 [7]: 47 pg/mL; TNF-α [8]: 48 pg/mL

Q: Which results are given for CCC=CCC=CCC=CCC=CCC=CCC=CCCC(=O)OCC(N)C(=O)O (centres unmarked)?
A: Inhibition rate (%) [9]: 99%; Inhibition rate (%) ([10]; 0.035 mM (Table 25)): 99%; inhibition rate ([10]; concentration 0.035 mM): greater than 99%; IC50 ([10]; read-out: half inhibition concentration): 9 µM; Inhibition rate (%) [11]: 99%; Inhibition rate (%) [12]: 99%; Inhibition rate (%) [13]: 99%; Inhibition rate (%) [14]: 99%; Sterilization rate (%) [15]: 99%; Sterilization rate (%) [16]: 99%; Sterilization rate (%) [17]: 99%; Sterilization rate (%) [18]: 99%; proliferation of human hair follicle stem cells [19]: effectively promote the proliferation; IC50 [20]: 9 µM

Reference: patent publication US20260166162A1, “CARBON CHAIN SUBSTANCE FOR REGULATING TRANSMEMBRANE TRANSPORT AND FLUIDITY OF CELL MEMBRANES, AND PREPARATION AND USE THEREOF” (priority 2022, published 2026)
